Assay results published in ChEMBL document CHEMBL4052819 (2017).

Experiments:
Klebsiella pneumoniae [1] = assay: Potentiation of rifampicin-mediated antibacterial activity against Klebsiella pneumoniae ATCC 13883 assessed as decrease in rifampicin MIC at 1.56 to 12.5 ug/ml by broth dilution method relative to control; format: functional
Klebsiella pneumoniae [2] = assay: Potentiation of rifampicin-mediated antibacterial activity against Klebsiella pneumoniae ATCC 700603 assessed as decrease in rifampicin MIC at 1.56 to 12.5 ug/ml by broth dilution method relative to control; format: functional

Compound: CC[C@H](C)[C@@H](NC(=O)[C@@H](NC(=O)[C@H](CCC(=O)O)NC(=O)[C@H](Cc1ccccc1)NC(=O)[C@@H](CCN)NC(=O)[C@H](CCN)NC(=O)[C@H](CO)NC(=O)[C@@H](Cc1c[nH]c2ccccc12)NC(=O)[C@@H](CO)NC(=O)CNC(=O)[C@@H](CCN)NC(=O)[C@H](N)C(C)C)C(C)C)C(=O)N[C@@H](C)C(=O)O
- fold change (FC) (Klebsiella pneumoniae [1]): 256 - 512
- fold change (FC) (Klebsiella pneumoniae [2]): 256 - 512
